# Measured values reported in patent publication US20130018062A1, “Pain therapy with metabolism blocked antifolates” (priority 2011, published 2013).
# Like-named read-outs stand apart in the source and are kept apart here.
# What was measured:
# [1] = tested on: Allergic Rabbits; settings: allergen induced; cited from earlier work
# [2] = tested on: C-Reactive Protein (CRP); test: Plasma CRP levels of patients on therapy with M-Trex for Rheumatoid Arthritis (Example-2); format: in vivo, human; settings: arthritic patients taking M-Trex, clinical study by Castaneda and Nair
# Text: Coronary Heart Disease (CHD), Cardio-vascular diseases (CVD) and Stroke are of the same generic species by virtue of Inflammation being the common underlying cause of their occurrence. In fact an article by the American Heart Association entitled “Inflammation, Heart Disease and Stroke. The role of C-Reactive Protein” stressed that markers of Inflammation are more accurate and reliable predictive factors than total cholesterol levels in humans. [www.americanheart.org/presenter.jhtml?presenter=4648]. The most accurate predictive factor for the incidence of CHD, CVD and stroke is elevated levels of C-Reactive Protein (CRP).
# [3] = tested on: Human HCT-8 Colon Xenograft; test: Antitumor activity in nude mice bearing human HCT-8 colon xenograft (Example-4); format: in vivo; settings: i.v. push daily × 5 at maximum tolerated dose (M-Trex 4.0, MTX 1.0 mg/kg/day)
# Text: There are three general accepted methods for the evaluation of Pain in patients suffering from a number of diseases. They are Visual Analog Scale (VAS); Numeric rating Scale (NRS) and Verbal Categorical Rating Scale […]. Of these three assessment methods VAS is considered to be most reliable in a majority of cases to evaluate and quantify the magnitude of the perception of Pain. Clinical trials conducted by Castaneda and Nair used VAS to assess pain intensity in RA patients receiving 10-DAAM in one trial [G. Alarcon, O. Castaneda, W. J. Koopman, C. L. Krumdieck, and M. G. Nair. U.S. Pat. No. 5,030,634 (1991)] and M-Trex (CH-1504) in another trial conducted separately. Almost all cases of cancer Pain is due to tissue inflammation, tissue compression and tissue damage secondary to rapid proliferation of cells. Therefore any therapeutic intervention that shrinks proliferating tissues can bring about significant reduction in Pain. Shown below is the efficacy of M-Trex in shrinking human colon cancer transplanted and growing in nude mice.
# [4] = Toxicity (maximum tolerated dose, weight loss) in nude mice bearing HCT-8 xenograft; format: in vivo; settings: i.v. push daily × 5 in nude mice
# [5] = tested on: C-Reactive Protein (CRP); parameters: unit not given here; settings: RA patients on therapy with M-Trex, cited from earlier work
# [6] = tested on: patients with Rheumatoid Arthritis; test: Pain assessment by VAS scale in patients treated with M-Trex (Example-1); format: in vivo, human
# Text: Of special importance was the novel observation of the ability of M-Trex to substantially reduce Pain in human subjects who were suffering from inflammation caused by autoimmune response. [O. Castaneda and M. G. Nair. Controlled trial of methotrexate versus CH-1504 in the treatment of Rheumatoid Arthritis. The J. Rheumatology. 33, 862-64, 2006.] […] Another unique observation with M-Trex was its ability to shrink human tumor xenografts in immuno-compromised mice. The ability of metabolism blocked antifolate M-Trex to shrink rapidly proliferating human tissues is representative and results in Pain reduction secondary to such proliferation. [EXAMPLE-1]** ** Pain assessment was made using the VAS scale every four weeks. Patients were treated with a daily oral dose of 7.5 mg/day of M-Trex during the duration of measurements. […] Pain as assessed by VAS was reduced from a scale of 7.2 to 1.8.
# There are three general accepted methods for the evaluation of Pain in patients suffering from a number of diseases. They are Visual Analog Scale (VAS); Numeric rating Scale (NRS) and Verbal Categorical Rating Scale […]. Of these three assessment methods VAS is considered to be most reliable in a majority of cases to evaluate and quantify the magnitude of the perception of Pain. […]
# [7] = Laboratory values (toxicity) of Rheumatoid Arthritis patients on M-Trex; format: in vivo, human; settings: M-Trex 7.5 mg per day; for CREATININE / GLUCOSE / SGOT / ALK. PHOSPHAT / SGTP / HEMOGLOB: RA patients; for ALK. PHOSPHAT / SGTP: in U/L (unit assumed); for HEMOGLOB: in g/dL (unit assumed)
smiles,measurement,setting,value
"C=C(CC(NC(=O)c1ccc(CCc2ccc3nc(N)nc(N)c3c2)cc1)C(=O)O)C(=O)O (stereo not drawn) [M-Trex, 4′-methylene-5,8-10-trideazaaminopterin]",Asthmatic Response Early,[1],52
same,Asthmatic Response Late,[1],58
same,BHR (Bronchial Hyper-Responsiveness),[1],47
same,Change of CRP levels (in words),[2],significant and consistent reduction
same,"MTGI, Maximum Tumor Growth Inhibition (% of control)","[3]; nude mice, HCT-8 xenograft",91.4 ± 2.2%
same,"Tumor doubling time, treated/control (%)","[3]; nude mice, HCT-8 xenograft",623.08%
same,"TD, Tumor Doubling Time",[3]; control 2.6 ± 0.8 days,16.2 ± 3.2 days
same,Maximum Tolerated dose,[4],M-Trex (4.0 mg/kg/day)
same,Plasma CRP Levels,[5]; visit at 4 weeks,22.1
same,Plasma CRP Levels,[5]; visit at 8 weeks,20.7
same,Plasma CRP Levels,[5]; visit at 12 weeks,17.7
same,Plasma CRP Levels,[5]; visit at 16 weeks,13.6
same,Pain as assessed by VAS,"[6]; starting value from which pain was reduced, Rheumatoid Arthritis patients",7.2
same,Pain as assessed by VAS,"[6]; value reached on daily oral dose of 7.5 mg/day of M-Trex, assessed every four weeks",1.8
same,CREATININE,[7]; VISIT 2,0.79 mg/dL
same,GLUCOSE,[7]; VISIT 2,83.8 mg/dL
same,SGOT,[7]; VISIT 2,14.6 U/L
same,ALK. PHOSPHAT,[7]; VISIT 2,107.75
same,SGTP,[7]; VISIT 2,17.75
same,HEMOGLOB,[7]; VISIT 2,11.77
same,CREATININE,[7]; VISIT 3,0.95 mg/dL
same,GLUCOSE,[7]; VISIT 3,95 mg/dL
same,SGOT,[7]; VISIT 3,16 U/L
same,ALK. PHOSPHAT,[7]; VISIT 3,86
same,SGTP,[7]; VISIT 3,17
same,HEMOGLOB,[7]; VISIT 3,12.43
same,CREATININE,[7]; VISIT 4,0.85 mg/dL
same,GLUCOSE,[7]; VISIT 4,87.5 mg/dL
same,SGOT,[7]; VISIT 4,16 U/L
same,ALK. PHOSPHAT,[7]; VISIT 4,89.3
same,SGTP,[7]; VISIT 4,25
same,HEMOGLOB,[7]; VISIT 4,12.18
same,CREATININE,[7]; VISIT 5,0.85 mg/dL
same,GLUCOSE,[7]; VISIT 5,88.1 mg/dL
same,SGOT,[7]; VISIT 5,17.3 U/L
same,ALK. PHOSPHAT,[7]; VISIT 5,87.1
same,SGTP,[7]; VISIT 5,20
same,HEMOGLOB,[7]; VISIT 5,12.26
same,CREATININE,[7]; VISIT 6,0.92 mg/dL
same,GLUCOSE,[7]; VISIT 6,92.4 mg/dL
same,SGOT,[7]; VISIT 6,14.9 U/L
same,ALK. PHOSPHAT,[7]; VISIT 6,85.42
same,SGTP,[7]; VISIT 6,18.21
same,HEMOGLOB,[7]; VISIT 6,12.56
same,CREATININE,[7]; VISIT 7,0.84 mg/dL
same,GLUCOSE,[7]; VISIT 7,90.3 mg/dL
same,SGOT,[7]; VISIT 7,15.2 U/L
same,ALK. PHOSPHAT,[7]; VISIT 7,86.5
same,SGTP,[7]; VISIT 7,18
same,HEMOGLOB,[7]; VISIT 7,12.48
same,Toxicity according to laboratory values,[7]; patients with Rheumatoid Arthritis,not associated with any measurable toxicity
